Test results from paper PMC9023544, “Ketone-selenoesters as potential anticancer and multidrug resistance modulation agents in 2D and 3D ovarian and breast cancer in vitro models” (Scientific Reports, 2022).
Counter-ions that a name gives are not always drawn. Like-named read-outs stand apart in the source and are kept apart here.

How the values were obtained:
[1] = system: HOC (human parental ovarian adenocarcinoma, A2780); assay: Cytotoxic activity, 2D, resazurin, 72 h; format: cell-based; details: for IC50: 2D, 72 h, mean ± SEM, n=3, read-out: HOC IC50; for SI HEK293/HOC: IC50 HEK293 / IC50 HOC
Procedure: (§1) The cytotoxic potential of selenoesters was tested on several cancer cell lines—HOC (human parental ovarian adenocarcinoma, HOC, A2780, Sigma-Aldrich), HOC/ADR (sub-line resistant to Adriamycin, A2780/ADR, Sigma-Aldrich), MCF-7 (human breast adenocarcinoma, ATCC®, HTB-22TM), MCF-7/PAX (resistant sub-line established by gradual adaptation of parental cells to increased concentration of paclitaxel; kindly provided by Division of Cell and Molecular Biology, Third Faculty of Medicine, Charles University, Czech Republic) and on one non-cancerous cell line—HEK293 (human embryonic kidney cell line, Leibniz Institute, DSMZ-German Collection of Microorganisms and Cell Cultures GmbH). All mentioned cell lines were authenticated using short tandem repeat (STR) profiling. Cell lines were cultivated in DMEM medium (10% FBS, 1× antibiotic antimycotic solution), except for HEK293 cell line which was cultivated without antibiotics. In case of the resistant cell lines, the medium was supplemented with a required concentration of cytostatics to maintain resistance (HOC/ADR—100 nM Adriamycin; MCF-7/PAX—300 nM paclitaxel). All cells were cultivated in a CO2 incubator (5% CO2, 37 °C, Thermo Fisher Scientific).
(§2) For the experiment, the cells at passage number 5–20 were seeded at a 1 × 10^5 cells/mL concentration into 96-well plates to 100 µL final volume. The final concentration range of the compounds was 0.63–20 µM. After an incubation of 72 h, the plates were washed 1× with PBS and resazurin solution (0.03 mg/mL in 1× PBS) was added. After 1 h of incubation, the fluorescence signal was recorded (ex./em. 560/590 nm).
(§3) The selectivity index (SI) was determined as the ratio of IC50 value for the non-cancerous cells to IC50 for the cancer cell line. For resistant cell lines, the collateral sensitivity (CS) was calculated as the ratio of IC50 value in sensitive tumour cells to IC50 in the resistant cancer cell line. In both cases, the selectivity is considered as: (1) strongly selective when SI or CS value is above 6, (2) moderately selective when SI or CS is between 3 and 6, (3) slightly selective when SI or CS is between 1 and 3 and (4) non-selective when SI or CS is less than 1[23].

[2] = system: HOC/ADR (sub-line resistant to Adriamycin, A2780/ADR); assay: Cytotoxic activity, 2D, resazurin, 72 h; format: cell-based, human; details: for IC50 / IC10: Homo sapiens, A2780 ADR, 72 h; for IC50: 2D, mean ± SEM, n=3, read-out: HOC/ADR IC50; for IC10: HOC/ADR, concentration that should not decrease viability under 90%, read-out: IC10 of compounds; for SI HEK293/HOC/ADR: IC50 HEK293 / IC50 HOC/ADR; for CS (collateral sensitivity index): IC50 HOC / IC50 HOC/ADR
Procedure: as §1, §2, §3

HOC/ADR = assay: Sensitization of MDR cell line to Adriamycin; format: cell-based, human; details: for increase of the IC50 of Adriamycin: IC10 dose of compound; for Fold change: IC50 of Adriamycin / IC50 of Adriamycin with IC10 dose of compound
Procedure: To determine the sensitization potential of compounds, HOC/ADR and MCF-7/PAX were used. Based on the cytotoxic potential of the compounds against several cancer and non-cancerous cell lines (Table 1), the concentrations of applied compounds were adjusted. IC10 values was considered as the concentrations, which should not decrease the cell viability under 90%. After the addition of compounds, Adriamycin (concentration range 0.1–20 µM) and paclitaxel (concentration range 0.1–10 µM) were added to HOC/ADR and MCF-7/PAX, respectively. The sensitization potential of the compounds was determined as the ratio of the IC50 of cytostatic agent (Adriamycin/paclitaxel) to the IC50 of cytostatic agent affected by the compound in concentration corresponding to the IC10 value. Fold change greater than 1 indicated synergic effect of cytostatic agent and the tested compound.
After that, the plates were washed 1× with PBS and fresh DMEM medium supplemented with tested compounds at final concentration corresponding their IC10 value was added, except for positive control wells. Subsequently, Adriamycin (concentration range 0.1–20 µM) or paclitaxel (concentration range 0.1–10 µM) was added to the appropriate cell line for 72 h. After incubation, the cells were washed 1× with PBS and the resazurin solution (0.03 mg/mL) was added to evaluate the cell viability as described above. IC50 values of cytostatics were calculated for both the control and compounds; a fold change was counted up. When this fold change is higher than 1 indicates a synergism between the tested cytostatic agent and the compound, while a fold change lower than 1 means an antagonism. Fold change=IC50value of cytostatic treated cells only/IC50value of cytostatic treated cells in addition of the compound

[3] = system: MCF-7 (human breast adenocarcinoma); assay: Cytotoxic activity, 2D, resazurin, 72 h; format: cell-based; details: for IC50: Homo sapiens, MCF7, 2D, 72 h, mean ± SEM, n=3, read-out: MCF-7 IC50; for SI HEK293/MCF-7: IC50 HEK293 / IC50 MCF-7
Procedure: as §1, §2, §3

[4] = system: MCF-7/PAX (paclitaxel-resistant sub-line); assay: Cytotoxic activity, 2D, resazurin, 72 h; format: cell-based, human; details: for IC50: Homo sapiens, MCF7, 2D, 72 h, mean ± SEM, n=3, read-out: MCF-7/PAX IC50; for SI HEK293/MC7-7/PAX: IC50 HEK293 / IC50 MCF-7/PAX; for CS (collateral sensitivity index): IC50 MCF-7 / IC50 MCF-7/PAX
Procedure: as §1, §2, §3

[5] = system: HEK293 (human embryonic kidney cell line); assay: Cytotoxic activity, non-cancerous cell line, resazurin, 72 h; format: cell-based; details: Homo sapiens, HEK293; 72 h, mean ± SEM, n=3
Procedure: as §1, §2, §3

SMILES	IC50 ([1]; Homo sapiens, A2780, 72 h) [µM]	IC50 [2] [µM]	IC50 (HOC/ADR; Homo sapiens, Adriamycin 0.1–20 µM with IC10 dose of compound, 72 h, ADR row = Adriamycin alone) [µM]	SI HEK293/HOC [1]	IC50 [3] [µM]	SI HEK293/MCF-7 [3]	IC10 [2] [µM]	SI HEK293/HOC/ADR [2]	CS (collateral sensitivity index) [2]	collateral sensitivity against paclitaxel-resistant breast carcinoma (in words) [4]	IC50 [4] [µM]	SI HEK293/MC7-7/PAX [4]	CS (collateral sensitivity index) [4]	IC50 [5] [µM]	increase of the IC50 of Adriamycin (HOC/ADR)	Fold change (HOC/ADR)	IC50 [1] [µM]	selectivity versus HEK293 (in words) ([3]; sensitive MCF-7)
COc1cccc2c1C(=O)c1c(O)c3c(c(O)c1C2=O)C[C@@](O)(C(=O)CO)C[C@@H]3O[C@H]1C[C@H](N)[C@H](O)[C@H](C)O1 [ADR, doxorubicin hydrochloride, reference compound]	0.01	2.5	2.5															
N#CC[Se]C(=O)c1cccs1 [N1]	2.7 ± 0.3	4.2 ± 0.2		2.2 ± 0.4	3.1 ± 0.2	2.0 ± 0.3	2.5	1.4 ± 0.2	0.7 ± 0.1	slight collateral sensitivity	2.5	2.4 ± 0.4	1.2 ± 0.2	6 ± 0.6	3.5 fold	(0.3 ± 0.1)×		
N#CC[Se]C(=O)c1ccccc1C(F)(F)F [N4]	2.4 ± 0.1	3.7 ± 0.2		2.2 ± 0.2	2.1 ± 0.1	2.5 ± 0.2	2.4	1.4 ± 0.1	0.6 ± 0.1		2.4 ± 0.2	2.1 ± 0.2	0.9 ± 0.1	5.2 ± 0.3		(1.3 ± 0.1)×		
CC(=O)C[Se]C(=O)c1ccccc1F [K2]	< 1	2.4 ± 0.1		1.6 ± 0.1	1.9 ± 0.1	0.7 ± 0.1	1	0.5 ± 0.0	0.3 ± 0.0		1.9 ± 0.1	0.6 ± 0.1	1.0 ± 0.1	1.2 ± 0.1		(1.2 ± 0.0)×	0.8 ± 0.1	
N#CC[Se]C(=O)c1ccc(F)c(Cl)c1 [N6]	2.4 ± 0.2	3.6		2.1 ± 0.2	1.7	2.9 ± 0.1	2.6	1.4 ± 0.0	0.7 ± 0.1		1.9 ± 0.1	2.6 ± 0.1	0.9 ± 0.0	4.9 ± 0.1	almost threefold	(0.4 ± 0.0)×		
CC(=O)C[Se]C(=O)c1cccc(C(F)(F)F)c1 [K5]	1.1	2.2 ± 0.3		1.5 ± 0.0	1.6 ± 0.1	1.0 ± 0.1	1.5	0.7 ± 0.1	0.5 ± 0.1		2.8 ± 0.1	0.6 ± 0.0	0.6 ± 0.1	1.6	almost twofold	(0.5 ± 0.1)×		
N#CC[Se]C(=O)c1cc(C(F)(F)F)cc(C(F)(F)F)c1 [N7]	2.9 ± 0.1	5.7 ± 0.2		2.3 ± 0.3	2.2 ± 0.1	3.0 ± 0.5	3.1	1.2 ± 0.1			2.7 ± 0.3	2.5 ± 0.4	0.8 ± 0.1	6.6 ± 0.6		(1.1 ± 0.1)×		moderate selectivity
CC(=O)O[C@H]1C(=O)[C@@]2(C)[C@H]([C@H](OC(=O)c3ccccc3)[C@]3(O)C[C@H](OC(=O)[C@H](O)[C@@H](NC(=O)c4ccccc4)c4ccccc4)C(C)=C1C3(C)C)[C@]1(OC(C)=O)CO[C@@H]1C[C@@H]2O [PAX, paclitaxel, reference compound]					0.03						1.5							
